Assays:
[1] = test system: α1β3γ2L GABAA receptors, bulky mutation at α1L232; set-up: key: +: Mutant-function studies are deemed positive when bulky mutations (mostly tryptophans) at the site significantly reduce positive modulation by anesthetics; -: Negative results are indicated by “–“ symbols; details: cited from earlier work
[2] = test system: α1β3γ2L GABAA receptors, bulky mutation at α1A291; set-up: method as in PMID 30696720; key: +: Mutant-function studies are deemed positive when bulky mutations (mostly tryptophans) at the site significantly reduce positive modulation by anesthetics; -: Negative results are indicated by “–“ symbols; details: cited from earlier work
[3] = target: T1, α1β3M286Cγ2L GABAA receptors (Homo sapiens, UniProt P14867+P18507+P28472, M311C); assay: Drug protection from pCMBS modification (SCAMP); type: cell-based; set-up: key: +: Mutant-function studies are deemed positive when bulky mutations (mostly tryptophans) at the site significantly reduce positive modulation by anesthetics; -: Negative results are indicated by “–“ symbols; details: results of this study (*); etomidate cell also cites [16]
T1 construct: expressed in transfected cells; host or cells: Xenopus oocytes injected with capped mRNA, 1α:1β:5γ
T1 sequence (P28472 26-473 M311C, one chain of several): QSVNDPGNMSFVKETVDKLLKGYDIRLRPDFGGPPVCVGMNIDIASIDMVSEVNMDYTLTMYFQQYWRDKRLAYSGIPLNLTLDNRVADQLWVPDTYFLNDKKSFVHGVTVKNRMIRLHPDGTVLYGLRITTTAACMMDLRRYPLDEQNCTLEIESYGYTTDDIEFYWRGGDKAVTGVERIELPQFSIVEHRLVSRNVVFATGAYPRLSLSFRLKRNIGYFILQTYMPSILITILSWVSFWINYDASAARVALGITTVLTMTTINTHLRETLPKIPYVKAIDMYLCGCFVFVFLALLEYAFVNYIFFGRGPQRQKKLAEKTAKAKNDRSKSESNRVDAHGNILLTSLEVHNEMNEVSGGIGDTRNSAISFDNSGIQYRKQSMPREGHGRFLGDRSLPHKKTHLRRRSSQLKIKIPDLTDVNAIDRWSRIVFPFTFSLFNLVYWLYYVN
T1 sequence (P18507 40-475, one chain of several): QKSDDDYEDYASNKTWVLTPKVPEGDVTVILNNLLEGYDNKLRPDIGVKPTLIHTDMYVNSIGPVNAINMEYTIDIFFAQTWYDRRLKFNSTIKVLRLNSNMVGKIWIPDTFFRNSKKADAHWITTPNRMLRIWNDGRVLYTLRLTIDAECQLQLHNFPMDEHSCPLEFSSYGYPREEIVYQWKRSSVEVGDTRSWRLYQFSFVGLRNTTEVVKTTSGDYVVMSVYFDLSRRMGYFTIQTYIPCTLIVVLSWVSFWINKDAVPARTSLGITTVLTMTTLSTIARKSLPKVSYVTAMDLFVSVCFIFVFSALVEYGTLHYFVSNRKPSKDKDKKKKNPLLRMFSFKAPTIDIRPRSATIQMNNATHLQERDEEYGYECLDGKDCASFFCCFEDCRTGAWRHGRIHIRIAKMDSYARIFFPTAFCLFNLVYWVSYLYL
Description: (§1) Experiments were performed in ND-96 buffer at room temperature (20–22°C). Oocytes were placed in a low-volume (30µl) flow chamber and impaled with borosilicate microelectrodes filled with 3M KCl (resistance 0.5–3 MΩ) and voltage-clamped at −50 mV (model OC-725C; Warner Instruments, Hamden, CT, USA). Superfusate solutions in ND-96 were delivered at 2 ml/min from glass syringe reservoirs via computer-controlled valves (VC-8; Warner Instruments), a micro-manifold (ALA-VM8; ALA Scientific Instruments, Farmingdale, NY, USA), and PTFE tubing. Currents were digitized at 200 Hz on a computer running ClampEx v8.0 software (Molecular Devices, San Jose, CA, USA). Digitized traces were filtered with a 10-Hz low-pass Bessel function, leak corrected and analyzed for peak amplitude off-line using Clampfit v8 software (Molecular Devices).
(§2) Drug protection from pCMBS modification was assessed under pCMBS exposure conditions that produced approximately half of the maximal modification ratio for each mutant receptor, and a least a value of 3. This approach balanced the magnitude of functional modification signals (smaller with less pCMBS exposure) against the challenge of using a reversibly bound ligand to competitively block an irreversible covalent cysteine-modifying reaction. […] Each oocyte was used in a single SCAMP experiment. […] Etomidate was used as a positive control for anesthetic protection in α1M236C and β3M286C mutants and as a negative control in α1S270C, α1A291C, β3L231C, γ2S301C, γ2I242C, and γ2L246C mutants. R-mTFD-MPAB was used as a positive control in α1S270C, α1A291C, β3L231C, and γ2LS301C mutants and as a negative control in α1M236C and β3M286C mutants. For each cysteine mutant and protective drug combination, five oocytes were studied.
(§3) Non-linear least squares fits and statistical analyses were performed in Prism 10.4.0. (GraphPad Software, San Diego, CA, USA). […] Protection (steric inhibition of pCMBS modification) was inferred when anesthetics produced significant reductions in modification ratios relative to control (no anesthetic) values. The statistical significance threshold was p < 0.05.

[4] = target: T2, α1β3γ2S301C GABAA receptors (Homo sapiens, UniProt P14867+P18507+P28472, S340C); assay: Drug protection from pCMBS modification (SCAMP); type: cell-based; set-up: key: +: Mutant-function studies are deemed positive when bulky mutations (mostly tryptophans) at the site significantly reduce positive modulation by anesthetics; -: Negative results are indicated by “–“ symbols; details: results of this study (*)
T2 construct: expressed in transfected cells; host or cells: Xenopus oocytes injected with capped mRNAs mixed 1α:1β:5γ
T2 sequence (P14867 28-456): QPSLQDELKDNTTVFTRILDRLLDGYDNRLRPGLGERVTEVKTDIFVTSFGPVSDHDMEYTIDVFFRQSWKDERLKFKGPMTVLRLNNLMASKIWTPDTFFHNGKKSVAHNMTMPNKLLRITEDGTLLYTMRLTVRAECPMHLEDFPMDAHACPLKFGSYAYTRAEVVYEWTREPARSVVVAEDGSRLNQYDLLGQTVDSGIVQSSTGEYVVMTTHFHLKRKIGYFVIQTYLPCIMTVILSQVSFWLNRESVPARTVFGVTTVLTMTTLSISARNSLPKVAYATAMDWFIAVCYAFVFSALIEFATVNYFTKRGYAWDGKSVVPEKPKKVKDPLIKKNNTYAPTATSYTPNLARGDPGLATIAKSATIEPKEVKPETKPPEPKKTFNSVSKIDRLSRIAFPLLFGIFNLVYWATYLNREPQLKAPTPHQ
T2 sequence (P28472 26-473): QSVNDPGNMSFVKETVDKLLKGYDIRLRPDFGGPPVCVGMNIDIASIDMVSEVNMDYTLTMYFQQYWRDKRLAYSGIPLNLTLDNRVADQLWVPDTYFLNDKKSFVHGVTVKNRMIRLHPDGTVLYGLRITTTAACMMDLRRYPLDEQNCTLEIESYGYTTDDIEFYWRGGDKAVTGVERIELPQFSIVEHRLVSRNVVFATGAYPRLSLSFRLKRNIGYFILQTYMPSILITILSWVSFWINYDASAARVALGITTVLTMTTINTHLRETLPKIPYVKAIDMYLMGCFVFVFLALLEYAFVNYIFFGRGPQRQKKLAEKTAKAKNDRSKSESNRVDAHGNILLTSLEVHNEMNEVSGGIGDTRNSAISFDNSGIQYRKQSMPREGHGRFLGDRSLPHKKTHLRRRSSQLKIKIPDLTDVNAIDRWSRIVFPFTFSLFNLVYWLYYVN
T2 sequence (P18507 40-475 S340C): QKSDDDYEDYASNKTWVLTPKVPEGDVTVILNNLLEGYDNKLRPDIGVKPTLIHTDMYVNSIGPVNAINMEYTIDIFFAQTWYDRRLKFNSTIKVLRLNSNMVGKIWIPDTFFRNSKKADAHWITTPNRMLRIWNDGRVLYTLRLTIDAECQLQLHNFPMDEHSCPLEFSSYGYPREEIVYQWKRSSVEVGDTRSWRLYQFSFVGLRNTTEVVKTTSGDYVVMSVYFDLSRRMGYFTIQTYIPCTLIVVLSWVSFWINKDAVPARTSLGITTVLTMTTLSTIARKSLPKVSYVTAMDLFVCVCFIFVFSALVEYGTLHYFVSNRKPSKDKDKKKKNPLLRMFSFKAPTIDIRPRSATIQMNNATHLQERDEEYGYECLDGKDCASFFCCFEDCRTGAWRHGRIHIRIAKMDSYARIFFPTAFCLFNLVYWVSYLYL
Description: as §1, §2, §3

| SMILES | Mutant-function result, α1– (M1) L232 [1] | Mutant-function result, α1+ (M2, M3) A291 [2] | SCAMP result, β3+ (M2, M3) M286 [3] | SCAMP result, γ2+ (M2, M3) S301 [4] |
| --- | --- | --- | --- | --- |
| C=CCC1(c2cccc(C3(C(F)(F)F)N=N3)c2)C(=O)NC(=O)N(C)C1=O (centres unmarked) [R-mTFD-MPAB, R-5-allyl-1-methyl-5-(m-trifluoromethyl-diazirynylphenyl) barbituric acid] | -^[9] | +^[13] | -* | – |
| CCOC(=O)c1cncn1[C@H](C)c1ccccc1 [etomidate, R-etomidate] | +^[9, 12] | -^[13] | – | -* |
| CC(C)c1cc(C2(C(F)(F)F)N=N2)cc(C(C)C)c1CO [pTFD-di-iPr-BnOH] | – | – | -* | -* |

— paper PMC12591484 (PLOS One, 2025)
